These results are taken from patent USRE47493E1, “Substituted bicyclic dihydropyrimidinones and their use as inhibitors of neutrophil elastase activity” (Boehringer Ingelheim International GmbH, priority 2014, dated 2019).

SMILES strings stand for the structures.

Sequence of Human neutrophil elastase (P08246 30-267): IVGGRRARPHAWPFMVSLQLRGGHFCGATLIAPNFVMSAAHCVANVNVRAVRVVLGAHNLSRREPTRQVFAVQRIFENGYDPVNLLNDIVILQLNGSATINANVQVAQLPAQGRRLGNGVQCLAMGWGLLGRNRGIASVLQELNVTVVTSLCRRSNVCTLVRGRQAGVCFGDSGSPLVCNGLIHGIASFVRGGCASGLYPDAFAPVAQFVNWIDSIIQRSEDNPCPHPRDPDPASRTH

The target of the first assay is Human neutrophil elastase (Homo sapiens (Human), UniProt P08246). As to the kind of experiment: Human Neutrophil Elastase Assay. Conditions: human neutrophil elastase, substrate MeOSuc-Ala-Ala-Pro-Val-AMC, pH 7.5; read-out: IC50. The assay is classed as biochemical. The method, then:
Human Neutrophil Elastase Assay
Materials: Human neutrophil elastase was purchased from Calbiochem (Cat.No.: 324681) and the elastase substrate MeOSuc-Ala-Ala-Pro-Val-AMC from Bachem (Cat.No.: I-1270). All other materials were of the highest grade commercially available.
The following buffers were used: Compound buffer: 100 mM Tris, 500 mM NaCl, adjusted to pH 7.5; Assay buffer: 100 mM Tris, 500 mM NaCl, adjusted to pH 7.5, containing 0.01% BSA.
Assay conditions: Test compounds were prediluted in DMSO and subsequently in compound buffer (5% DMSO final). 5 μL of these compound dilutions were mixed with 10 μl Neutrophil elastase (9 ng/ml in assay buffer) in a black 384 well OptiPlate (Perkin Elmer, Cat No.: 6007270) and incubated for 15 min at room temperature. Subsequently 10 μL substrate solution in assay buffer were added (250 nM final concentration) and the plates were incubated for 60 min at room temperature. After inactivation of the enzyme, fluorescence intensities were measured at 380 nm excitation and 460 nm emission wavelengths.
Each plate contains wells with a high value control (DMSO+enzyme+substrate) and wells with a low value control (DMSO+inactivated enzyme+substrate). IC50 values were estimated using a sigmoidal concentration response curve with variable slope. Means of low values were taken as 0%, means of high values as 100%.
A word on the IC50: it is the concentration that gives 50% inhibition. Consider `N#Cc1ccc(C2NC(=O)N(c3cccc(C(F)(F)F)c3)C3=C2C(=O)CCC3)cc1` (racemic) [Example 1, 4-(2,5-Dioxo-1-(3-(trifluoromethyl)phenyl)-1,2,3,4,5,6,7,8-octahydroquinazolin-4-yl)-benzonitrile], for which the IC50 worked out at 28.5 nM.
`CS(=O)(=O)c1cc(C#N)ccc1C1NC(=O)N(c2cccc(C(F)(F)F)c2)C2=C1C(=O)CCC2` (racemic) [Example 18, 4-(2,5-Dioxo-1-(3-(trifluoromethyl)phenyl)-1,2,3,4,5,6,7,8-octahydroquinazolin-4-yl)-3-(methylsulfonyl)benzonitrile]: the IC50 came to 8.5 nM.
Consider `CS(=O)(=O)c1cc(C#N)ccc1C1NC(=O)N(c2cccc(C(F)F)c2)C2=C1C(=O)CCC2` (racemic) [Example 19, 4-(1-(3-(Difluoromethyl)phenyl)-2,5-dioxo-1,2,3,4,5,6,7,8-octahydroquinazolin-4-yl)-3-(methylsulfonyl)benzonitrile], for which the IC50 was found to be 10.7 nM.
For the compound `CN1C(=O)N(c2cccc(C(F)(F)F)c2)C2=C(C(=O)CCC2)C1c1ccc(C#N)cc1` (racemic) [Example 20, 4-(1-(3-(Trifluoromethyl)phenyl)-3-methyl-2,5-dioxo-1,2,3,4,5,6,7,8-octahydroquinazolin-4-yl)benzonitrile], the IC50 is 7.3 nM.
With `COC(=O)CN1C(=O)N(c2cccc(C(F)(F)F)c2)C2=C(C(=O)CCC2)C1c1ccc(C#N)cc1` (racemic) [Example 31, Methyl 2-(4-(4-Cyanophenyl)-2,5-dioxo-1-(3-(trifluoromethyl)phenyl)-1,2,5,6,7,8-hexahydroquinazolin-3(4H)-yl)acetate], the IC50 was found to be 18.4 nM.
The same measure, in the same setting: the figure for `CCS(=O)(=O)c1cc(C#N)ccc1[C@@H]1NC(=O)N(c2cccc(C(F)(F)F)c2)C2=C1C(=O)CCC2` (single isomer, unassigned) [Example 54B] is 1870 nM; for `N#Cc1ccc([C@H]2NC(=O)N(c3cccc(C(F)(F)F)c3)C3=C2C(=O)CCC3)cc1` [Example 1A, (R)-4-(2,5-Dioxo-1-(3-(trifluoromethyl)phenyl)-1,2,3,4,5,6,7,8-octahydroquinazolin-4-yl)benzonitrile] it is 9.5 nM.
As for `N#Cc1ccc([C@@H]2NC(=O)N(c3cccc(C(F)(F)F)c3)C3=C2C(=O)CCC3)cc1` [Example 1B, (S)-4-(2,5-Dioxo-1-(3-(trifluoromethyl)phenyl)-1,2,3,4,5,6,7,8-octahydroquinazolin-4-yl)benzonitrile], the IC50 was 6560 nM.
Turning to `CS(=O)(=O)c1cc(C#N)ccc1[C@@H]1NC(=O)N(c2cccc(C(F)(F)F)c2)C2=C1C(=O)CCC2` [Example 18B, (R)-4-(2,5-Dioxo-1-(3-(trifluoromethyl)phenyl)-1,2,3,4,5,6,7,8-octahydroquinazolin-4-yl)-3-(methylsulfonyl)benzonitrile], the IC50 came to 2510 nM.
Consider `CS(=O)(=O)c1cc(C#N)ccc1[C@@H]1NC(=O)N(c2cccc(C(F)F)c2)C2=C1C(=O)CCC2` [Example 19B, (R)-4-(1-(3-(Difluoromethyl)phenyl)-2,5-dioxo-1,2,3,4,5,6,7,8-octahydroquinazolin-4-yl)-3-(methylsulfonyl)benzonitrile], for which the IC50 came to 1660 nM.
For the compound `CN1C(=O)N(c2cccc(C(F)(F)F)c2)C2=C(C(=O)CCC2)[C@H]1c1ccc(C#N)cc1` [Example 20A, (R)-4-(1-(3-(Trifluoromethyl)phenyl)-3-methyl-2,5-dioxo-1,2,3,4,5,6,7,8-octahydroquinazolin-4-yl)benzonitrile], the IC50 was determined as 2.2 nM.
The same measure, in the same setting: the same measure for `CN1C(=O)N(c2cccc(C(F)(F)F)c2)C2=C(C(=O)CCC2)[C@@H]1c1ccc(C#N)cc1` [Example 20B, (S)-4-(1-(3-(Trifluoromethyl)phenyl)-3-methyl-2,5-dioxo-1,2,3,4,5,6,7,8-octahydroquinazolin-4-yl)benzonitrile]: 1340 nM; for `COC(=O)CN1C(=O)N(c2cccc(C(F)(F)F)c2)C2=C(C(=O)CCC2)[C@H]1c1ccc(C#N)cc1` [Example 31A, (R)-Methyl 2-(4-(4-Cyanophenyl)-2,5-dioxo-1-(3-(trifluoromethyl)phenyl)-1,2,5,6,7,8-hexahydroquinazolin-3(4H)-yl)acetate]: 7.6 nM.
Same read-out and setting: the figure for `COC(=O)CN1C(=O)N(c2cccc(C(F)(F)F)c2)C2=C(C(=O)CCC2)[C@@H]1c1ccc(C#N)cc1` [Example 31B, (S)-Methyl 2-(4-(4-Cyanophenyl)-2,5-dioxo-1-(3-(trifluoromethyl)phenyl)-1,2,5,6,7,8-hexahydroquinazolin-3(4H)-yl)acetate] is 7020 nM; for `CN(C)C(=O)CN1C(=O)N(c2cccc(C(F)(F)F)c2)C2=C(C(=O)CCC2)[C@H]1c1ccc(C#N)cc1` [Example 34A, (R)-2-(4-(4-Cyanophenyl)-2,5-dioxo-1-(3-(trifluoromethyl)phenyl)-1,2,5,6,7,8-hexahydroquinazolin-3(4H)-yl)-N,N-dimethylacetamide] it is 1.5 nM.
Same read-out and setting: the same measure for `CN(C)C(=O)CN1C(=O)N(c2cccc(C(F)(F)F)c2)C2=C(C(=O)CCC2)[C@@H]1c1ccc(C#N)cc1` [Example 34B, (S)-2-(4-(4-Cyanophenyl)-2,5-dioxo-1-(3-(trifluoromethyl)phenyl)-1,2,5,6,7,8-hexahydroquinazolin-3(4H)-yl)-N,N-dimethylacetamide]: 570 nM; for `Cn1ncc2c1CN(C(=O)CN1C(=O)N(c3cccc(C(F)(F)F)c3)C3=C(C(=O)CCC3)[C@H]1c1ccc(C#N)cc1)C2` [Example 35A, (R)-4-(3-(2-(1-Methylpyrrolo[3,4-c]pyrazol-5(1H,4H,6H)-yl)-2-oxoethyl)-2,5-dioxo-1-(3-(trifluoromethyl)phenyl)-1,2,3,4,5,6,7,8-octahydroquinazolin-4-yl)benzonitrile]: less than 1 nM; for `Cn1ncc2c1CN(C(=O)CN1C(=O)N(c3cccc(C(F)(F)F)c3)C3=C(C(=O)CCC3)[C@@H]1c1ccc(C#N)cc1)C2` [Example 35B, (S)-4-(3-(2-(1-Methylpyrrolo[3,4-c]pyrazol-5(1H,4H,6H)-yl)-2-oxoethyl)-2,5-dioxo-1-(3-(trifluoromethyl)phenyl)-1,2,3,4,5,6,7,8-octahydroquinazolin-4-yl)benzonitrile]: 26.8 nM.
Regarding `N#Cc1ccc(C2C3=C(CCCC3=O)N(c3cccc(C(F)(F)F)c3)C(=O)N2CC(=O)N2CCN3CCCC3C2)cc1` (centres unmarked) [Example 36.56], the IC50 turned out to be 5 nM.
The same measure, in the same setting: the same measure for `CN1C[C@@H](NC(=O)CN2C(=O)N(c3cccc(C(F)(F)F)c3)C3=C(C(=O)CCC3)C2c2ccc(C#N)cc2)CCC1=O` (some centres unmarked) [Example 36.61]: 12.7 nM; for `N#Cc1ccc(C2C3=C(CCCC3=O)N(c3cccc(C(F)(F)F)c3)C(=O)N2CC(=O)NCCN2CCNC2=O)cc1` (centres unmarked) [Example 36.62]: 8.2 nM.
Regarding `CNC(=O)N1C(=O)N(c2cccc(C(F)(F)F)c2)C2=C(C(=O)CCC2)[C@@H]1c1ccc(C#N)cc1S(C)(=O)=O` [Example 47B, (R)-4-(4-Cyano-2-(methylsulfonyl)phenyl)-N-methyl-2,5-dioxo-1-(3-(trifluoromethyl)-phenyl)-1,2,5,6,7,8-hexahydroquinazoline-3(4H)-carboxamide], the IC50 amounted to 94 nM.
Same read-out and setting: the same measure for `CS(=O)(=O)c1cc(C#N)ccc1C1C2=C(CCCC2=O)N(c2cccc(C(F)(F)F)c2)C(=O)N1CC(F)F` (centres unmarked) [Example 58.3]: 3.1 nM.
On the same count and under the same terms, the figure for `COCCCN1C(=O)N(c2cccc(C(F)(F)F)c2)C2=C(C(=O)CCC2)C1c1ccc(C#N)cc1S(C)(=O)=O` (centres unmarked) [Example 58.4] is 11.3 nM; for `CS(=O)(=O)c1cc(C#N)ccc1C1C2=C(CCCC2=O)N(c2cccc(C(F)(F)F)c2)C(=O)N1CC(=O)N1CCC1` (centres unmarked) [Example 62.1] it is less than 1 nM; for `CS(=O)(=O)c1cc(C#N)ccc1C1C2=C(CCCC2=O)N(c2cccc(C(F)(F)F)c2)C(=O)N1CC(=O)N1CCCC1` (centres unmarked) [Example 62.2] it is less than 1 nM.
Same read-out and setting: the figure for `CN(CCO)C(=O)CN1C(=O)N(c2cccc(C(F)(F)F)c2)C2=C(C(=O)CCC2)C1c1ccc(C#N)cc1S(C)(=O)=O` (centres unmarked) [Example 62.3] is 1.3 nM; for `CS(=O)(=O)c1cc(C#N)ccc1C1C2=C(CCCC2=O)N(c2cccc(C(F)(F)F)c2)C(=O)N1CC(=O)N1CC2CC2C1` (centres unmarked) [Example 62.4] it is less than 1 nM.
Turning to `CS(=O)(=O)c1cc(C#N)ccc1C1C2=C(CCCC2=O)N(c2cccc(C(F)(F)F)c2)C(=O)N1CC(=O)N1CCC(F)C1` (centres unmarked) [Example 62.6], the IC50 is less than 1 nM.
Consider `COCCN(C)C(=O)CN1C(=O)N(c2cccc(C(F)(F)F)c2)C2=C(C(=O)CCC2)C1c1ccc(C#N)cc1S(C)(=O)=O` (centres unmarked) [Example 62.7], for which the IC50 is less than 1 nM.
With `COC1CCN(C(=O)CN2C(=O)N(c3cccc(C(F)(F)F)c3)C3=C(C(=O)CCC3)C2c2ccc(C#N)cc2S(C)(=O)=O)CC1` (centres unmarked) [Example 62.8], the IC50 is 11.6 nM.
Turning to `CN(Cc1cnn(C)c1)C(=O)CN1C(=O)N(c2cccc(C(F)(F)F)c2)C2=C(C(=O)CCC2)C1c1ccc(C#N)cc1S(C)(=O)=O` (centres unmarked) [Example 62.9], the IC50 came out at 1.4 nM.
The same measure, in the same setting: the figure for `N#Cc1ccc(C2C3=C(CCCC3=O)N(c3cccc(C(F)(F)F)c3)C(=O)N2C(=O)N[C@H]2CCC[C@@H]2O)cc1` (some centres unmarked) [Example 70.11] is less than 1 nM; for `N#Cc1ccc(C2C3=C(CCCC3=O)N(c3cccc(C(F)(F)F)c3)C(=O)N2C(=O)N[C@H]2CCCC[C@@H]2O)cc1` (some centres unmarked) [Example 70.17] it is 1.1 nM.

The same assay, now with this note: read-out: IC50, inhibition of neutrophil elastase.
Turning to `CS(=O)(=O)c1cc(C#N)ccc1[C@@H]1NC(=O)N(c2cccc(C(F)(F)F)c2)C2=C1C(=O)CCC2` [Example 18B, (R)-4-(2,5-Dioxo-1-(3-(trifluoromethyl)phenyl)-1,2,3,4,5,6,7,8-octahydroquinazolin-4-yl)-3-(methylsulfonyl)benzonitrile], the IC50 stood at 2510 nM.
